This test has as its system 3T3-L1 cells. The test is described as follows: Induction of adipocyte differentiation (amount of triglyceride biosynthesis). The class given is cell-based. Particulars: Mus musculus. A digest of the protocol:
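3T3-L1 cells were grown 7 days in DMEM/10% FBS/200 μM ascorbic acid, then given test compound with 0.25 μM dexamethasone for 45 h, then compound alone for 7 days, re-dosed at medium changes. Hexane:isopropanol-extracted triglyceride was measured in duplicate; X=(S−N)/(P−N) versus DMSO (N) and insulin (P), ranked +++ to +/−.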

Where [1] appears, read: 3T3-L1, read-out: Action for Induction of Differentiation.
Setting [2] is: 3T3-L1, X=(S−N)/(P−N) of amount of triglyceride, P=insulin positive control, read-out: Action for Induction of Differentiation.
Setting [3] is: 3T3-L1, 3 μM, X=(S−N)/(P−N) of amount of triglyceride, P=insulin positive control, read-out: Action for Induction of Differentiation.
Setting [4] is: 3T3-L1, 10 μM, X=(S−N)/(P−N) of amount of triglyceride, P=insulin positive control, read-out: Action for Induction of Differentiation.

Like-named read-outs stand apart in the source and are kept apart here. Where only a bound is given, the exact number is not on record here.

Turning to `COc1ccc(C(=O)/C=C/c2ccc(O)cc2)c(O)c1CC=C(C)C` [4-Hydroxyderricin, 4,2′-Dihydroxy-3′-prenyl-4′-methoxychalcone], under setting [1], the activation at 3 µM fell in the range of 60 to 100% and the activation at 10 µM was over 100%.

Take `COc1ccc(C(=O)/C=C/c2ccc(O)cc2)c(O)c1C/C=C(\C)CCC=C(C)C` [Xanthoangelol F, 4,2′-Dihydroxy-3′-geranyl-4′-methoxychalcone]: the activation at 1 µM under setting [2] fell in the range of 60 to 100%. Further, the activation at 3 µM under setting [3] was over 100%. Besides, the activation at 10 µM under setting [4] is over 100%.

On to `COc1ccc(C(=O)/C=C/c2ccc(O)cc2)c2c1CC(O)C(C)(C)O2` (centres unmarked) [Xanthoangelol H], for which the activation at 1.3 µM (3T3-L1, 1.3 μM, X=(S−N)/(P−N) of amount of triglyceride, P=insulin positive control, read-out: Action for Induction of Differentiation) is 30 to 60%. Where the note is “3T3-L1, 4 μM, X=(S−N)/(P−N) of amount of triglyceride, P=insulin positive control, read-out: Action for Induction of Differentiation”, the activation at 4 µM is 60 to 100%. The activation at 13 µM (3T3-L1, 13 μM, X=(S−N)/(P−N) of amount of triglyceride, P=insulin positive control, read-out: Action for Induction of Differentiation) was over 100%.

Regarding `CC(C)=CCC/C(C)=C/Cc1c(O)ccc(C(=O)/C=C/c2ccc(O)cc2)c1O` [Xanthoangelol, 4,2′,4′-Trihydroxy-3′-geranylchalcone], the activation at 1 µM under setting [2] is 15 to 30%. For the same compound, under setting [3], the activation at 3 µM fell in the range of 60 to 100%. Also, under setting [4], the activation at 10 µM was over 100%.

Source of the values: patent US20070092551A1, “Therapeutic agent” (TAKARA BIO INC., priority 2003, published 2007).
